Consider two compounds from patent EP1258248A2, “Tumor treatments comprising a fumagillol derivative and a further antineoplastic agent” (TAP Pharmaceutical Products, Inc., priority 2001, dated 2002).

Data set [1] concerns lung cancer. The experiment in a line: Phase I clinical study of intermittent TNP-470 combined with paclitaxel (Example 1), lung cancer patients. The class given is in vivo, human. The source says: (§1) TNP-470 administrations were repeated up to three times per week.
(§2) In the table, "response" refers to the percentage of patients whose tumor shrank by more than fifty percent; and "time to progression" refers to the median value of the length of time between the first dose of drug and observation that the tumor has grown by more than fifty percent, or that new tumors have appeared. Patients who stop taking the drug for other reasons are considered lost to follow-up for "time to progression" calculations. "Survival" in the table is a median value.

Data set [2] deals with advanced or metastatic cancer. Put plainly: Phase I clinical study of intermittent TNP-470 combined with paclitaxel (Example 1), all patients. Particulars: TNP-470 20-60 mg/m^2 + 135-225 mg/m^2 paclitaxel; 32 patients (different cancers). The format is in vivo, human.
Source text: as §1, §2

Data set [3] concerns non-small cell lung cancer. Put plainly: Phase I clinical study of intermittent TNP-470 with paclitaxel and carboplatin at a dose of AUC 5 (Example 2). The format is in vivo, human.
Data set [4] deals with advanced or metastatic cancer. The experiment in a line: Phase I clinical study of intermittent TNP-470 with paclitaxel and carboplatin at a dose of AUC 6 (Example 2). Here is the method:
Doses of TNP-470 and paclitaxel were modified as described below.
Twenty adult patients with advanced or metastatic cancer, were treated with TNP-470 (synthesized according to the procedure of U.S. Patent No. 5,180,738) in a liquid cyclodextrin-containing formulation using repeated administrations of a high dose (60 mg/m^2) given over one hour, combined with 225 mg/m^2 paclitaxel given over three hours. Carboplatin was given at doses calculated to provide an "area-under-the-curve (AUC)" exposure of 5 or 6 mg/mL/min (hereinafter referred to as "a dose of AUC 5" or "a dose of AUC 6"), according to the formula Dose (mg) = AUC x (glomerular filtration rate + 25) [formula] as described in the package insert for carboplatin. Glomerular filtration rate was estimated by creatinine clearance, either measured or calculated from the patient's age, weight, gender and serum creatinine according to the Cockcroft-Gault equation Cr CL = ((140-age) x weight (kg)/72 x serum creatinine) x 1.0 if male or 0.85 if female [formula]
In this study, paclitaxel was administered first, followed one hour later by TNP-470, then finally by the carboplatin. TNP-470 administrations were repeated up to three thimes per week. Paclitaxel and carboplatin administrations were repeated every three weeks as the patients' condition permitted. Anti-emetic therapy and prophylaxis against paclitaxel hypersensitivity were administered in accordance with the paclitaxel package insert on days when paclitaxel and carboplatin were administered.
The patients' tumors were measured at the start of the study, after six to eight weeks of therapy, and at two-month intervals thereafter. Patients continued to receive TNP-470 until tumors grew by 50% or they experienced adverse events.
Three patients, all with non-small cell lung cancer, received TNP-470 in combination with paclitaxel and carboplatin (a dose of AUC 5).

In another data set the test system is metastatic cancer. The experiment in a line: Phase I clinical study of continuously infused TNP-470 with paclitaxel and carboplatin (Example 3). The note with it: TNP-470 2.5-10 mg/m^2 continuous infusion with or without 60 on Day 1 + 200-225 mg/m^2 paclitaxel; carboplatin AUC 5-6; 20 patients (different cancers). The class given is in vivo, human. Here is the method: Twenty adult patients with metastatic cancer, including patients with lung cancer, were treated with TNP-470, using repeated continuous administrations of low doses (2.5-10 mg/m^2 over five days in combination with paclitaxel at doses of 200-225 mg/m^2 and carboplatin at a dose of AUC 5 or AUC 6 (as explained in Example 2 above) reported in row 7 of Table 1 above.
In this study, paclitaxel was administered first, followed by the carboplatin, then by TNP-470 administered intravenously via portable continuous infusion syringe pump (available from Sims-Deltec) at a dose of 2.5 -10 mg/m^2 for five days (115-120 hours). The five-day TNP-470 infusion was repeated every week.
In an ongoing cohort of this study, in addition to the described therapy, nine patients received 60 mg/m^2 TNP-470 as a one-hour intravenous infusion after infusion of paclitaxel and prior to infusion of carboplatin. This high-dose one-hour TNP-470 infusion was administered only when paclitaxel and carboplatin were administered.

The subject of data set [5] is lung cancer. The note with it: no TNP-470, lung cancer historical data, cited from earlier work.
[6] abbreviates: TNP-470 20-60 mg/m^2 + 135-225 mg/m^2 paclitaxel, 15 patients (lung cancer only), median.
[7] abbreviates: TNP-470 60 mg/m^2 + 225 mg/m^2 paclitaxel, carboplatin AUC 6, 14 patients (different cancers).

Structures are written as SMILES. Where two headings read alike, the source gives them in different places.

With `CO[C@@H]1[C@H](OC(=O)NC(=O)CCl)CC[C@]2(CO2)[C@H]1[C@@]1(C)O[C@@H]1CC=C(C)C` [TNP-470, 6-O-(N-chloroacetylcarbamoyl) fumagillol], the “Survival (months)” value in the data set on lung cancer [1] (setting [6]) was 14.3 months; in data set [3] (TNP-470 60 mg/m^2 + 225 mg/m^2 paclitaxel, carboplatin AUC 5, 3 patients (lung cancer only), individual values), “often, sixteen and more than twenty-two”; in data set [4] (setting [7]), “regimen not tolerated”. Besides, the “Time to Progression (months)” value in the data set on lung cancer [1] (setting [6]) is reported as 5.4 months; in data set [4] (setting [7]), “regimen not tolerated”. The “Responses (percentage)” value in the data set on lung cancer [1] (TNP-470 20-60 mg/m^2 i.v. up to three times per week + 135-225 mg/m^2 paclitaxel every three weeks, 15 patients (lung cancer only)) is given as 33 percentage; in data set [2] it was 28 percentage; in data set [3] (TNP-470 60 mg/m^2 + 225 mg/m^2 paclitaxel, carboplatin AUC 5, 3 patients (lung cancer only)), 100 percentage; in data set [4] (TNP-470 60 mg/m^2 + 225 mg/m^2 paclitaxel, carboplatin AUC 6, 14 patients (different cancers), prior chemotherapy, insufficient therapy to evaluate effectiveness), 0 percentage; with metastatic cancer it was 20 percentage. The “increase in survival over that previously reported for patients treated with paclitaxel alone” value in the data set on lung cancer [1] (TNP-470 + paclitaxel, patients with lung cancer, 14.3 months vs. 8 months) is “greater than 70%”. Moreover, the “tumor response in words” value in data set [3] (TNP-470 in combination with paclitaxel and carboplatin (a dose of AUC 5), three patients, all with non-small cell lung cancer) is given as “All three had partial responses”. For the same compound, the tumor shrinkage result in data set [3] (TNP-470 with paclitaxel and carboplatin, patients with non-small-cell lung cancer) is listed as “experienced tumor shrinkage”. Moreover, in data set [4] (TNP-470 60 mg/m^2 + 225 mg/m^2 paclitaxel + carboplatin at a dose of AUC 6, variety of different cancers, prior chemotherapy), the “tolerability of the combined therapy” value is given as “tolerated the combined therapy poorly beyond two cycles of therapy”.

On to `CC(=O)O[C@H]1C(=O)[C@@]2(C)[C@H]([C@H](OC(=O)c3ccccc3)[C@]3(O)C[C@H](OC(=O)[C@H](O)[C@@H](NC(=O)c4ccccc4)c4ccccc4)C(C)=C1C3(C)C)[C@]1(OC(C)=O)CO[C@@H]1C[C@@H]2O` [paclitaxel], for which, in the data set on lung cancer [5] (median), the “Survival (months)” value is 6-9 months and the “Time to Progression (months)” value was “∼3 months”. Further, the “Responses (percentage)” value with lung cancer [5] (patients whose tumor shrank by more than fifty percent) is on record as 20-30 percentage.
